Laboratory results taken from article PMC8037182, “Solvothermal Synthesis of Multiple Dihydropyrimidinones at a Time as Inhibitors of Eg5” (Molecules, 2021).

Tested on: Caco-2 cell line
Experiment: Cytotoxicity MTS assay, Caco-2 cell line
Assay type: cell-based
Conditions: for OD490 Mean / OD490 Well 1 / OD490 Well 2 / OD490 Well 3: Caco-2 cell line
Method: The positive compounds (IC50 < 100 μM) obtained from the primary Eg5 motor protein ATPase assay were tested for antiproliferative activity in vitro against Caco-2 cell line, Hela cell line, L929 cell line and T24 cell line by performing MTS assay. Cells were introduced into 96-well plates at a density of 1000 cells per well. After 24 h incubation, the cells were exposed with compounds at final concentrations ranging from 0.5 to 100 µM for 24 h. DMSO was used at a final concentration of 0.025% as blank control, monastrol was used as the positive control. Then 20 µL (CellTiter 96® AQueous One Solution Promega, Madison, WI, USA) reagent was added in each well. After 2 h at 37 °C in a 80% humidified, 5% CO2 atmosphere, the absorbance at 490 nm was recorded using a microplate reader (BIO-RAD iMark^TM). The results were obtained in three independent duplicate experiments. The primary data were shown in Supplementary Materials Tables S4–S7. The IC50 values for these compounds were calculated from a non-linear regression graph plotted between the percentage of cell viability and concentration with SPSS17.0 software.

CCOc1ccccc1C1NC(=S)NC(C)=C1C(=O)Nc1ccc(Cl)cc1 (stereo not shown) [C9]
OD490 Mean (0.5μM, first assay): 0.6579 | OD490 Well 1 (0.5μM, first assay): 0.6600 | OD490 Well 2 (0.5μM, first assay): 0.6452 | OD490 Well 3 (0.5μM, first assay): 0.6685 | OD490 Mean (0.5μM, second assay): 0.6430 | OD490 Well 1 (0.5μM, second assay): 0.6499 | OD490 Well 2 (0.5μM, second assay): 0.6217 | OD490 Well 3 (0.5μM, second assay): 0.6574 | OD490 Mean (0.5μM, third assay): 0.6809 | OD490 Well 1 (0.5μM, third assay): 0.6676 | OD490 Well 2 (0.5μM, third assay): 0.6999 | OD490 Well 3 (0.5μM, third assay): 0.6752 | OD490 Mean (1μM, first assay): 0.6557 | OD490 Well 1 (1μM, first assay): 0.6594 | OD490 Well 2 (1μM, first assay): 0.6683 | OD490 Well 3 (1μM, first assay): 0.6393 | OD490 Mean (1μM, second assay): 0.6328 | OD490 Well 1 (1μM, second assay): 0.6398 | OD490 Well 2 (1μM, second assay): 0.6387 | OD490 Well 3 (1μM, second assay): 0.6200 | OD490 Mean (1μM, third assay): 0.6578 | OD490 Well 1 (1μM, third assay): 0.6898 | OD490 Well 2 (1μM, third assay): 0.6914 | OD490 Well 3 (1μM, third assay): 0.5921 | OD490 Mean (10μM, first assay): 0.6390 | OD490 Well 1 (10μM, first assay): 0.5664 | OD490 Well 2 (10μM, first assay): 0.6539 | OD490 Well 3 (10μM, first assay): 0.6968 | OD490 Mean (10μM, second assay): 0.5939 | OD490 Well 1 (10μM, second assay): 0.5553 | OD490 Well 2 (10μM, second assay): 0.5431 | OD490 Well 3 (10μM, second assay): 0.6832 | OD490 Mean (10μM, third assay): 0.6521 | OD490 Well 1 (10μM, third assay): 0.6349 | OD490 Well 2 (10μM, third assay): 0.6214 | OD490 Well 3 (10μM, third assay): 0.7001 | OD490 Mean (25μM, first assay): 0.5635 | OD490 Well 1 (25μM, first assay): 0.5780 | OD490 Well 2 (25μM, first assay): 0.5488 | OD490 Well 3 (25μM, first assay): 0.5637 | OD490 Mean (25μM, second assay): 0.5347 | OD490 Well 1 (25μM, second assay): 0.5232 | OD490 Well 2 (25μM, second assay): 0.5214 | OD490 Well 3 (25μM, second assay): 0.5594 | OD490 Mean (25μM, third assay): 0.6041 | OD490 Well 1 (25μM, third assay): 0.6789 | OD490 Well 2 (25μM, third assay): 0.5214 | OD490 Well 3 (25μM, third assay): 0.6121 | OD490 Mean (50μM, first assay): 0.4407 | OD490 Well 1 (50μM, first assay): 0.4378 | OD490 Well 2 (50μM, first assay): 0.4511 | OD490 Well 3 (50μM, first assay): 0.4331 | OD490 Mean (50μM, second assay): 0.4117 | OD490 Well 1 (50μM, second assay): 0.3953 | OD490 Well 2 (50μM, second assay): 0.4678 | OD490 Well 3 (50μM, second assay): 0.3721 | OD490 Mean (50μM, third assay): 0.4510 | OD490 Well 1 (50μM, third assay): 0.4963 | OD490 Well 2 (50μM, third assay): 0.3954 | OD490 Well 3 (50μM, third assay): 0.4613 | OD490 Mean (100μM, first assay): 0.3208 | OD490 Well 1 (100μM, first assay): 0.2950 | OD490 Well 2 (100μM, first assay): 0.3313 | OD490 Well 3 (100μM, first assay): 0.3360 | OD490 Mean (100μM, second assay): 0.2995 | OD490 Well 1 (100μM, second assay): 0.2898 | OD490 Well 2 (100μM, second assay): 0.3121 | OD490 Well 3 (100μM, second assay): 0.2965 | OD490 Mean (100μM, third assay): 0.3309 | OD490 Well 1 (100μM, third assay): 0.3633 | OD490 Well 2 (100μM, third assay): 0.2374 | OD490 Well 3 (100μM, third assay): 0.3921 | IC50 (Homo sapiens, Caco-2, MTS assay, 24 h exposure): 65.8 µM
